Experimental data from US20250262140A1, “Compositions and Method of Use for Hair Straightening and Shaping” (Olaplex, Inc., priority 2020, published 2025).

Columns and labels:
[1] = Peptide stability to shampoo washes, fluorescence of dye-labeled peptide on hair (Example 9); type: binding; settings: Alexa Fluor 647 labeled peptide 1 mg/mL; virgin (FIG. 9a) and bleached (FIG. 9b) hair
Protocol: To separate solutions of 500 μL of DI water was added 1 mg of one of the peptides corresponding to SEQ ID NOs. 1 and 2-17. Then, a solution of 84 mg of sodium bicarbonate in 1 mL of DI water was prepared, and 12 μL of this solution was added to each peptide solution. Immediately prior to conjugation, 5 mg of Alexa Fluor 647 NHS ester (Thermo Fisher Scientific) dye molecule was dissolved in 500 μL of DMSO, and 15 μL of this solution was added to each peptide solution. After the dye was added, the solution was incubated at 4° C. in the dark for 16 hours. Removal of unbound dye molecules was carried out using a PD MiniTrap G-10 column (Cytiva) using DI water as the elutant. Fractions containing dye-labeled peptide were pooled and diluted to final peptide concentrations of 1 mg/mL.
Hair samples were then treated according to Example 8, except that during treatment with peptide, hair was treated with a single dye-labeled peptide corresponding to SEQ ID NOs. 1 and 2-17. For each set of conditions, three separate straightening protocols were performed.
Fluorescence images were collected on a EVOS M7000 Imaging System (Thermo Fisher Scientific) using a Cy5 filter set. Images were collected using a 0.1 second exposure time at a light intensity of 0.0023. Following fluorescence measurements, hair samples were then washed with shampoo an additional 9 times, towel dried, and fluorescently imaged again.
Image files were processed as 16-bit grayscale images using ImageJ software. […] The average and standard deviation of fluorescence intensity in the remaining regions (corresponding to hair strands containing fluorescently labeled peptides) was then directly calculated.

[2] = Hair straightening, treatment with heat only (Example 1); settings: 1 mg/mL peptide; after 10 shampoo wash/dry cycles
Protocol: Tresses of curly Brazilian hair were cut into ½ inch wide samples. The tresses were then washed with shampoo and allowed to air dry. The hair was straightened using a flat iron at 460° F. Once the hair was visibly straight, the hair was wrapped tightly in aluminum foil. A flat iron was applied to a section of the wrapped hair by holding the flat iron to the section for 10 seconds. This process was repeated until all sections of the hair were flat ironed.
Six individual solutions of each peptide corresponding to SEQ ID NO. 3 through SEQ ID NO 8 were dissolved in de-ionized (“DI”) water at a concentration of about 1 milligram per milliliter (“mg/mL”) and then applied to separate hair samples until the hair sample was saturated. The saturated hair was allowed to sit for 1 hour at 37° C. The hair was then blow dried under medium heat while gently pulling the hair into a straight shape. A flat iron was then applied to the hair at 400° F.
(§1) The straightened hair was washed with shampoo and allowed to air dry, and this washing/drying procedure was repeated a total of 10 times. […] There was little identifiable difference in efficacy among the six designed keratin binding peptides, although peptides corresponding to SEQ ID NO. 5 SEQ ID NO. 6, SEQ ID NO. 7 and SEQ ID NO. […] 3 and SEQ ID NO.4.

[3] = Hair straightening, treatment with lye and hydrogen peroxide (Example 2); settings: 1 mg/mL peptide; after 10 shampoo wash/dry cycles
Protocol: (§2) Tresses of curly Brazilian hair were cut into ½ inch wide samples. The tresses were then washed with shampoo and allowed to air dry. The hair then soaked in a solution of sodium hydroxide pH 12 for 30 minutes at room temperature. After this time, the hair was rinsed with DI water. The hair was then blow dried under medium heat while gently pulling the hair into a straight shape. A flat iron was then applied to the hair at 400° F.
Six individual solutions of each designed keratin binding peptide corresponding to SEQ ID NO. 3 through SEQ ID NO. 8 were dissolved in DI water at a concentration of 1 mg/ml and then applied to individual hair samples until the hair sample was saturated, and the hair sample was allowed to sit for 30 minutes at room temperature. The hair sample was then blow dried under medium heat while gently pulling the hair into a straight shape. A flat iron was then applied to the hair at 400° F.
L'Oreal® Oreor Creme 40 volume developer was then applied to the hair samples until the hair sample was saturated, and then allowed to sit for 30 minutes at room temperature. The hair samples were then rinsed with DI water.
as §1, with “Each straightened” for “The straightened”, “hair sample” for “hair”, “six” for “six designed keratin binding”, “NO. 5,” for “NO. 5”

[4] = Hair straightening, treatment with lye and glucose oxidase (Example 3); settings: 1 mg/mL peptide, 30 minutes; NaOH pH 12, glucose oxidase/glucose fixation; after 10 shampoo wash/dry cycles; only slight waves remained
Protocol: as §2
(§3) A solution of the peptide corresponding to SEQ ID. NO. 8 in DI water at a concentration of 1 mg/mL was then applied to hair sample until the hair sample was saturated, and the hair was allowed to sit for 30 minutes at room temperature. The hair was then blow dried under medium heat while gently pulling the hair into a straight shape. A flat iron was then applied to the hair at 400° F.
(§4) A solution of glucose oxidase (2 mg/mL) and glucose (18 mg/mL) in 50 mM sodium phosphate buffer pH 5.8 was then applied to the hair until the hair was saturated, and the hair was allowed to sit for 30 minutes at room temperature. The hair was then rinsed with DI water.
(§5) The straightened hair was washed with shampoo and allowed to air dry, and this washing/drying procedure was repeated a total of 10 times.

[5] = Hair straightening, treatment with glutathione reductase and hydrogen peroxide (Example 4); settings: 1 mg/mL peptide, 30 minutes; glutathione reductase/glutathione/NADP relaxation, 40 volume developer fixation; after 10 shampoo wash/dry cycles; only slight waves remained
Protocol: Tresses of curly Brazilian hair were cut into ½ inch wide samples. The tresses were then washed with shampoo and allowed to air dry. The hair then soaked in a solution of glutathione reductase (0.01 mg/mL), glutathione (100 mg/mL), and nicotinamide adenine dinucleotide phosphate (0.083 mg/mL) in 50 mM sodium phosphate buffer pH 8 for 30 minutes at room temperature. After this time, the hair was rinsed with DI water. The hair was then blow dried under medium heat while gently pulling the hair into a straight shape. A flat iron was then applied to the hair at 400° F.
as §3, with “of a” for “of the”, “SEQ ID NO.8” for “SEQ ID. NO. 8”, “to har” for “to hair sample”, “hair” for “hair sample”
L'Oreal® Oreor Creme 40 volume developer was then applied to the hair until the hair was saturated, and the hair was allowed to sit for 30 minutes at room temperature. The hair was then rinsed with DI water.
as §5

[6] = Hair straightening, treatment with glutathione and glucose oxidase (Example 5); settings: 1 mg/mL peptide, 30 minutes; glutathione pH 9 relaxation, glucose oxidase/glucose fixation; after 10 shampoo wash/dry cycles; only slight waves remained
Protocol: Tresses of curly Brazilian hair were cut into ½ inch wide samples. The tresses were then washed with shampoo and allowed to air dry. The hair then soaked in a solution of glutathione (100 mg/mL) in sodium hydroxide pH 9 for 30 minutes at room temperature. After this time, the hair was rinsed with DI water. The hair was then blow dried under medium heat while gently pulling the hair into a straight shape. A flat iron was then applied to the hair at 400° F.
as §3, with “ID NO.8” for “ID. NO. 8”, “hair” for “hair sample”
as §4, §5

[7] = Hair straightening, treatment with ammonium thioglycolate and hydrogen peroxide (Example 6); settings: 1 mg/mL peptide, 30 minutes; ammonium thioglycolate 10% v/v pH 10, hydrogen peroxide 2% v/v; after 30 shampoo wash/dry cycles; treated samples with and without peptide
Protocol: Tresses of curly Brazilian hair were cut into ½ inch wide samples. The tresses were then washed with shampoo and allowed to air dry. The hair then soaked in a solution of ammonium thioglycolate (10% v/v) in sodium hydroxide pH 10 for 30 minutes at room temperature. After this time, the hair was rinsed with DI water. The hair was then blow dried under medium heat while gently pulling the hair into a straight shape. A flat iron was then applied to the hair at 400° F.
as §3, with “In some samples, a solution” for “A solution”, “SEQ ID NO.8” for “SEQ ID. NO. 8”, “hair” for “hair sample”, “temperature. In these samples, the” for “temperature. The”
For all hair samples, a solution of hydrogen peroxide (2% v/v) was then applied to the hair until the hair was saturated, and the hair was allowed to sit for 30 minutes at room temperature. The hair was then rinsed with DI water.
The straightened hair was washed with shampoo and allowed to air dry, and this washing/drying procedure was repeated a total of 30 times.

In the case of “SEQ ID NO. 4: Q13C substitution relative to SEQ ID NO. 1 plus 3 additional cysteine substitutions (QGQVCHLQCAFSCYKKCELFPK)”, the “change in fluorescence intensity between 1 and 10 shampoos (retention of peptide in hair)” value (shortened to “change”) [1] is reported as “no statistically significant decrease”.
In the case of “SEQ ID NO. 5: designed keratin binding peptide with cysteine substitutions relative to SEQ ID NO: 1 (QGQCCHLQCCFSQYKKCELFPKC)”, the “straightening efficiency compared among the six peptides (vs SEQ ID NO. 3 and SEQ ID NO. 4)” value [2] is reported as “slightly higher straightening efficiency” and the “straightening efficiency compared among the six peptides (vs SEQ ID NO. 3 and SEQ ID NO. 4)” value [3] is reported as “slightly higher straightening efficiency”.
For “SEQ ID NO. 6: cysteine-substituted peptide with Q13C; SEQ ID NO. 14 is the same without Q13C (CGQCCHLQCCFCCYKKCELFPKC) [cysteine-substituted peptide with Q13C; 14 is the same without Q13C]”, the “straightening efficiency compared among the six peptides (vs SEQ ID NO. 3 and SEQ ID NO. 4)” value [2] was “slightly higher straightening efficiency”, the “straightening efficiency compared among the six peptides (vs SEQ ID NO. 3 and SEQ ID NO. 4)” value [3] was “slightly higher straightening efficiency” and the “change” value [1] was “no statistically significant decrease”.
With “SEQ ID NO. 7: cysteine-substituted peptide with Q13C; SEQ ID NO. 15 is the same without Q13C (CGCCCHLCCCFCCYKKCELFPKC) [cysteine-substituted peptide with Q13C; 15 is the same without Q13C]” the “straightening efficiency compared among the six peptides (vs SEQ ID NO. 3 and SEQ ID NO. 4)” value [2] was “slightly higher straightening efficiency”, the “straightening efficiency compared among the six peptides (vs SEQ ID NO. 3 and SEQ ID NO. 4)” value [3] was “slightly higher straightening efficiency” and the “change” value [1] was “no statistically significant decrease”.
With “SEQ ID NO. 8: cysteine-substituted peptide with Q13C; SEQ ID NO. 16 is the same without Q13C (CGQVCHLQCAFSCYKKCELFPKC) [cysteine-substituted peptide with Q13C; 16 is the same without Q13C]” the “straightening efficiency compared among the six peptides (vs SEQ ID NO. 3 and SEQ ID NO. 4)” value [2] was “slightly higher straightening efficiency”, the “straightening efficiency compared among the six peptides (vs SEQ ID NO. 3 and SEQ ID NO. 4)” value [3] was “slightly higher straightening efficiency” and the “hair straightening compared to untreated samples” value [4] was “significantly straightened”. For the same substance, the “hair straightening compared to untreated samples” value [5] was “significantly straightened”, the “hair straightening compared to untreated samples” value [6] was “significantly straightened” and the “hair straightening compared to an untreated sample” value [7] was “significantly straightened”. For the same substance, the “change” value [1] was “no statistically significant decrease”.
With “SEQ ID NO. 11: Q13C substitution relative to SEQ ID NO. 1 plus 2 additional cysteine substitutions (QGQVQHLQCAFSCYKKCELFPK)” the “change” value [1] was “no statistically significant decrease”.
In the case of “SEQ ID NO. 14: differs from SEQ ID NO. 6 in lacking the Q13C substitution (CGQCCHLQCCFCQYKKCELFPKC)”, the “change” value [1] is reported as “significant decrease”.
For “SEQ ID NO. 15: differs from SEQ ID NO. 7 in lacking Q13C; 10 cysteine substitutions, unique Q3C and/or Q8C (CGCCCHLCCCFCQYKKCELFPKC)”, the “change” value [1] was “strong retention”.
In the case of “SEQ ID NO. 16: differs from SEQ ID NO. 8 in lacking the Q13C substitution (CGQVCHLQCAFSQYKKCELFPKC)”, the “change” value [1] is reported as “significant decrease”.
